Test results from paper PMC11674187, “Inhibitory Effects of Cenobamate on Multiple Human Cardiac Ion Channels and Possible Arrhythmogenic Consequences” (Biomolecules, 2024).
“And” between values parts separate entries of the source, which are not always exact repeats. Equal values may be shown once. Read-outs that look alike come from different tables or passages of the source.

Assays:
[1] = rabbit; ref [5] p.10; cited from earlier work
[2] = target: T1, hCav1.2 (α1c + β2 + α2δ1) (Homo sapiens, UniProt Q13936); test: Whole-cell patch-clamp on HEK293T cells, ICaL; format: cell-based
T1 construct: host or cells: HEK293T
Experimental: (§1) Experiments were performed on HEK293T cell lines with persistent/inducible expression of different human cardiac ion channel isoforms: hNav1.5 and hKv7.1 + minK (Anaxon AG, Bern, Switzerland), hCav1.2 (α1c + β2 + α2δ1) (B’SYS GmbH, Witterswil, Switzerland), and hKv11.1 (hERG) (Cytocentrics Bioscience GmbH, Rostock, Germany). The cell lines were grown in standard conditions (37 °C, 5% CO2, 90% humidity) in DMEM:F12 medium (D8900, Sigma-Aldrich, Burlington, MA, USA) buffered with 15 mM HEPES, containing 3.15 g/L D-glucose and 0.055 g/L sodium pyruvate, supplemented with 1.2 g/L sodium bicarbonate, 10% fetal bovine serum (F2442, Sigma-Aldrich, Burlington, MA, USA), 2 mM L-glutamine (G7513, Sigma-Aldrich, Burlington, MA, USA), 1% penicillin–streptomycin (P4333, Sigma-Aldrich, Burlington, MA, USA), and with specific antibiotics for selection of transfected cells or induction of gene expression according to manufacturers’ instructions. The medium was changed every 2–3 days and the cells were passed weekly upon detachment with trypsin–EDTA solution. All cell culture media and solutions were sterile filtered with 0.22 μm polyvinylidene fluoride filters. Ncyte® vCardiomyocytes (Ncardia, Leiden, The Netherlands) were cultured in 24-well plates precoated with bovine fibronectin, following manufacturer’s instructions. For the experiments, cardiomyocytes were detached as described previously and plated on ϕ 10 mm glass coverslips, like the other cell lines.
(§2) Manual whole-cell patch-clamp experiments were performed at room temperature, with equipment as described in previous studies. Pipettes were pulled from Clark borosilicate glass capillaries with inner filament (GC150F-10, Harvard Apparatus, Holliston, MA, USA) and had typical resistances of 2–3 MΩ. Recordings were performed with a WPC-100 resistive feedback amplifier (ESF electronic, Göttingen, Germany) or an Axopatch 200B amplifier (Axon Instruments—Molecular Devices, San Jose, CA, USA) connected to a Digidata 1322A interface driven by the pClamp 8.2 Clampex module (Axon Instruments, part of Molecular Devices, San Jose, CA, USA). For different types of ion channel, we applied specific voltage-clamp protocols as follows: • - For hERG, a standard two-step activation protocol was used: holding at −70 mV, a 100 ms step at −50 mV used as current reference for measurements, a 2 s depolarizing step at +40 mV, followed by a 2 s step at −50 mV to elicit the peak hERG current by rapid recovery from inactivation, repeated sweeps at 10 s intervals, plus specific protocols to assess the voltage dependence of activation and inactivation, as described in Thomet et al., 2021 [11]. • - For hKv7.1 + minK, a general two-step activation protocol was used: holding at −110 mV, a 250 ms step at −80 mV with a brief (50 ms) step at −90 mV at the middle to monitor seal quality, a 3000 ms depolarizing step at +60 mV, followed by a 1000 ms step at −50 mV; repeated sweeps at 20 s intervals. • - For hCav1.2, a pharmacology protocol with holding at −80 mV, a first 100 ms step at −50 mV and a second 200 ms step at 0 mV, repeated sweeps at 20 s intervals with drug application after 5 sweeps if current levels were steady, plus an activation–inactivation protocol with holding at −80 mV, 1000 ms depolarizing steps from −80 to +50 mV in 10 mV increments, followed by 250 ms steps at +10 mV and a return to −80 mV; 14 sweeps at 20 s intervals. • - For hNav1.5, multiple voltage protocols were used, including the following: • - A standard pharmacology protocol with holding at −90 mV, a 20 ms step at −110 mV for seal monitoring, a 40 ms activation step at −10 mV, and repeated sweeps at 1 s intervals. […]

hNav1.5 = target: T2, hNav1.5 (Homo sapiens, UniProt Q14524); test: Whole-cell patch-clamp on HEK293T cells, peak INa (standard, activation and inactivation protocols); format: cell-based
T2 construct: host or cells: HEK293T
Experimental: as §1, §2

neuronal Na+ channels = system: neuronal Na+ channels; design: method as in PMID 33993416; settings: ref [6]; read-out: IC50 on late (persistent) neuronal Na+ current; cited from earlier work
hKv11.1 (hERG), IKr = target: T3, hKv11.1 (hERG), IKr (Homo sapiens, UniProt Q12809); test: Whole-cell patch-clamp on HEK293T cells, IKr; format: cell-based; settings: human, HEK293T cells expressing hKv11.1 (hERG); for inhibition at 200 µM: pH 7.4, cenobamate 200 µM
T3 construct: host or cells: HEK293T
Experimental: as §1, §2

hKv11.1 (hERG) = target: T4, hKv11.1 (hERG) (Homo sapiens, UniProt Q12809); test: Whole-cell patch-clamp on HEK293T cells, IKr; format: cell-based
T4 construct: host or cells: HEK293T
Experimental: as §1, §2

hKv7.1 + minK = target: T5, hKv7.1 + minK (Homo sapiens, UniProt P51787); test: Whole-cell patch-clamp on HEK293T cells, IKs; format: cell-based; settings: for inhibition at 200 µM: HEK-293T
T5 construct: host or cells: HEK293T
Experimental: as §1
Manual whole-cell patch-clamp experiments were performed at room temperature, with equipment as described in previous studies. Pipettes were pulled from Clark borosilicate glass capillaries with inner filament (GC150F-10, Harvard Apparatus, Holliston, MA, USA) and had typical resistances of 2–3 MΩ. Recordings were performed with a WPC-100 resistive feedback amplifier (ESF electronic, Göttingen, Germany) or an Axopatch 200B amplifier (Axon Instruments—Molecular Devices, San Jose, CA, USA) connected to a Digidata 1322A interface driven by the pClamp 8.2 Clampex module (Axon Instruments, part of Molecular Devices, San Jose, CA, USA). […]

[3] = cited from earlier work

T4 sequence (Q12809 whole entry): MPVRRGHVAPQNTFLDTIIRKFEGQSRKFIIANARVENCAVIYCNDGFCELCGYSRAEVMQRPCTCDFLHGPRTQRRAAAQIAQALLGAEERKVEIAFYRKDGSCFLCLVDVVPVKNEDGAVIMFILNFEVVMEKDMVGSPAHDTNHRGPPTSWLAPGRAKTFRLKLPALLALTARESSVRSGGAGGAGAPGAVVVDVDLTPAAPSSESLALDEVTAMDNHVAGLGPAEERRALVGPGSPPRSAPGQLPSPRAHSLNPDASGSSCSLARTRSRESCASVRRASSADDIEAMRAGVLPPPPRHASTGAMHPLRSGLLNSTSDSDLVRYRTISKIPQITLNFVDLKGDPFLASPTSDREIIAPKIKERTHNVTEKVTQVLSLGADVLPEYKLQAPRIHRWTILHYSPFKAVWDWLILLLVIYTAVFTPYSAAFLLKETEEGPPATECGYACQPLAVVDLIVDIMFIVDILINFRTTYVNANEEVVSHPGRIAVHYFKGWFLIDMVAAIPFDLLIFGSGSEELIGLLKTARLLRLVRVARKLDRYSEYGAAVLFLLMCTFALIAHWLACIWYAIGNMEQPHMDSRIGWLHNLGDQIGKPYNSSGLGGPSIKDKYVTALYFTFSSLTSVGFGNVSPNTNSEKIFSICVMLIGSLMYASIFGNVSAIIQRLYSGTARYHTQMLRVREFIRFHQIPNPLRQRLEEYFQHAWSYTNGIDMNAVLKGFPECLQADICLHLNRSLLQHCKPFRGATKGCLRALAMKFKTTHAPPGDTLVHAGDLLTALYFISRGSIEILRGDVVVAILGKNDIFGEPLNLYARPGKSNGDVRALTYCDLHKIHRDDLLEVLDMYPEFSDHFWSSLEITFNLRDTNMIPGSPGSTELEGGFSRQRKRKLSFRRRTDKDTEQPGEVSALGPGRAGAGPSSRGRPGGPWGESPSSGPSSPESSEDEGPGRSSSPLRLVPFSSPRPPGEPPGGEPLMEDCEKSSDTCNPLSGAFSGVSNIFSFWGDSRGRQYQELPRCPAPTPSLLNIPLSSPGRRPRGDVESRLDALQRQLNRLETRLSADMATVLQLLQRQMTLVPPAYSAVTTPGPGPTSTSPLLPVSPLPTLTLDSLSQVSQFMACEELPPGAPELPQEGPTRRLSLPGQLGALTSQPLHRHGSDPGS
T3 sequence (Q12809 whole entry): as above
T2 sequence (Q14524 whole entry): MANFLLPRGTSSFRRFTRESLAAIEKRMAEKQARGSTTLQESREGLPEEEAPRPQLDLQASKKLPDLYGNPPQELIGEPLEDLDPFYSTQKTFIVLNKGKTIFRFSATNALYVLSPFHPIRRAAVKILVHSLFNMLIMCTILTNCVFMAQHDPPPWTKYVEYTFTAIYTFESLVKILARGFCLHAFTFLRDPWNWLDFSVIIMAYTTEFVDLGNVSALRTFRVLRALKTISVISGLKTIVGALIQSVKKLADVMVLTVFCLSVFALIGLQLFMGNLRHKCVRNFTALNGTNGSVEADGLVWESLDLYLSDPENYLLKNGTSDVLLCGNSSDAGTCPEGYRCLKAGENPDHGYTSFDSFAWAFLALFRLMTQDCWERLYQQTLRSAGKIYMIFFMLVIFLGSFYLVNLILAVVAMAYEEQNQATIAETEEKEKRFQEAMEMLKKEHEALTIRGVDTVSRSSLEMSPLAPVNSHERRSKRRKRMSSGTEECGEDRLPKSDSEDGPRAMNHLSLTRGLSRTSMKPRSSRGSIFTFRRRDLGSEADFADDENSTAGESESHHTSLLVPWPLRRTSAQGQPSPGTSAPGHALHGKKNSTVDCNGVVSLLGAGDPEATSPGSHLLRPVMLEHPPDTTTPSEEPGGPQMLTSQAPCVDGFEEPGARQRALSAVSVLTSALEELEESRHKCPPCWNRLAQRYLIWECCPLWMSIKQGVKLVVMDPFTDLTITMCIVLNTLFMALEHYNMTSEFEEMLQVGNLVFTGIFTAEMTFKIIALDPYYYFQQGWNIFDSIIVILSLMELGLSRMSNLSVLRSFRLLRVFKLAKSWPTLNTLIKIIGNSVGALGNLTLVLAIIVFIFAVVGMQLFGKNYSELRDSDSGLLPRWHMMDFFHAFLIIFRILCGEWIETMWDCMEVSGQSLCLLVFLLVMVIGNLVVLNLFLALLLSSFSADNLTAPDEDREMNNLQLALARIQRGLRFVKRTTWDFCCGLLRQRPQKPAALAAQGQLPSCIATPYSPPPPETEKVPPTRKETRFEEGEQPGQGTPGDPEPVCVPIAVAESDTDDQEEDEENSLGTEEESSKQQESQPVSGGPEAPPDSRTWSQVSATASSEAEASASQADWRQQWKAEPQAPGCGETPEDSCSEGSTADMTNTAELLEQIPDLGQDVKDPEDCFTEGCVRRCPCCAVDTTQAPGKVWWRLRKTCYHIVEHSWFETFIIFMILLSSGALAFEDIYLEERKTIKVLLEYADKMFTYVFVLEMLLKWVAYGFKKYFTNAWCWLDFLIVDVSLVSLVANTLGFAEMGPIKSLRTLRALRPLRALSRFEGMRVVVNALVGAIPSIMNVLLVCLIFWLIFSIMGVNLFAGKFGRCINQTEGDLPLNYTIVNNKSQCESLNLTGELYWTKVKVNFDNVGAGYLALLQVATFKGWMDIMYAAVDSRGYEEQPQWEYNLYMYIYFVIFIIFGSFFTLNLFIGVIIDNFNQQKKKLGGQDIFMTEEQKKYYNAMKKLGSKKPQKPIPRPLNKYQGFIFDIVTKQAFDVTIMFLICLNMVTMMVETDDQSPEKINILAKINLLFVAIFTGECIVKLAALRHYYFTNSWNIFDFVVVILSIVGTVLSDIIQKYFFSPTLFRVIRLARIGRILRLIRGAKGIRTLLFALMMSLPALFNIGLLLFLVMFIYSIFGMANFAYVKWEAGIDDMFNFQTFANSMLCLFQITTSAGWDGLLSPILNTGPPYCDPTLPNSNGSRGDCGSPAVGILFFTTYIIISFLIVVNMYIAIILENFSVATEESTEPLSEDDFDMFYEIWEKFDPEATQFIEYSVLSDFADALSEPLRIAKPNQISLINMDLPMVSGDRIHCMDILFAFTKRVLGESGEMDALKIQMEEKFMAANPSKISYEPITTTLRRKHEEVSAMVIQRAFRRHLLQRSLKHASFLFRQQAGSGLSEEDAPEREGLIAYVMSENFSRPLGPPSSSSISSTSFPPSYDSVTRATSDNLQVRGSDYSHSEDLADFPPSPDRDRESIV

NC(=O)O[C@@H](Cn1ncnn1)c1ccccc1Cl [cenobamate]
protein binding [1]: 35.4% | inhibition at 20 µM ([2]; HEK-293T, cenobamate 20 µM, read-out: % ICaL inhibition, mean (Table S5)): 6.65% | inhibition at 100 µM ([2]; HEK-293T, cenobamate 100 µM, read-out: % ICaL inhibition, mean (Table S5)): 11.3% | inhibition at 100 µM ([2]; HEK-293T, cenobamate 100 µM, read-out: % ICaL inhibition, single experiments (Table S5)): 11.2% | inhibition at 200 µM ([2]; HEK-293T, cenobamate 200 µM, read-out: % ICaL inhibition, mean (Table S5)): 34.5% | inhibition at 200 µM ([2]; HEK-293T, cenobamate 200 µM, step at 0 mV, initial set, mean (SD), n = 4, read-out: average inhibition of peak ICaL amplitude): 39.3 ± 13.8% | inhibition at 400 µM ([2]; HEK-293T, cenobamate 400 µM, read-out: % ICaL inhibition, mean (Table S5)): 42% | inhibition at 400 µM ([2]; HEK-293T, cenobamate 400 µM, read-out: % ICaL inhibition, single experiments (Table S5)): 39% | inhibition at 1000 µM ([2]; HEK-293T, cenobamate 1000 µM, read-out: % ICaL inhibition, mean (Table S5)): 65.3% | IC50 ([2]; ICaLIC50 (model script), value entered in C++ script): 510 µM | IC50 ([2]; apparent IC50 for hCav1.2 (ICaL) inhibition, unitary Hill coefficient): 510 µM | % ICaL inhibition, single experiments (Table S5) ([2]; cenobamate 100 µM): 11.40% and 10.58% and 12.03% | average inhibition of peak ICaL amplitude ([2]; cenobamate 200 µM, step at 0 mV, initial set, mean (SD), n = 4): 39.26 ± 13.78% | % ICaL inhibition, single experiments (Table S5) ([2]; cenobamate 400 µM): 41.25% and 47.37% and 40.40% | % ICaL inhibition, single experiments (Table S5) ([2]; cenobamate 1000 µM): 77.36% and 58.39% and 76.52% and 52.87% and 61.56% | inhibition at 10 µM (hNav1.5; HEK-293T, cenobamate 10 µM, read-out: % INa inhibition (peak), mean (Table S2)): 8.6% | inhibition at 10 µM (hNav1.5; HEK-293T, cenobamate 10 µM, read-out: % INa inhibition (peak), single experiments (Table S2)): 8.58% | inhibition at 40 µM (hNav1.5; HEK-293T, cenobamate 40 µM, read-out: % INa inhibition (peak), mean (Table S2)): 37.7% | inhibition at 100 µM (hNav1.5; HEK-293T, cenobamate 100 µM, read-out: % INa inhibition (peak), mean (Table S2)): 49% | inhibition at 100 µM (hNav1.5; HEK-293T, cenobamate 100 µM, read-out: % INa inhibition (peak), single experiments (Table S2)): 52.7% | inhibition at 200 µM (hNav1.5; HEK-293T, cenobamate 200 µM, read-out: % INa inhibition (peak), mean (Table S2)): 69.9% | inhibition at 200 µM (hNav1.5; HEK-293T, cenobamate 200 µM, standard protocol, step at -10 mV, initial set, mean (SD), n = 6, read-out: average inhibition of peak INa): 69.5% | inhibition at 1000 µM (hNav1.5; HEK-293T, cenobamate 1000 µM, read-out: % INa inhibition (peak), mean (Table S2)): 89.3% | inhibition at 1000 µM (hNav1.5; HEK-293T, cenobamate 1000 µM, read-out: % INa inhibition (peak), single experiments (Table S2)): 89.6% | IC50 (hNav1.5; INaIC50 (model script), value entered in C++ script): 87.6 µM | IC50 (hNav1.5; apparent IC50 for peak INa inhibition, Hill coefficient nH = 1, room temperature): 87.6 µM and < 100 µM | % INa inhibition (peak), single experiments (Table S2) (hNav1.5; cenobamate 10 µM): 9.79% and 10.02% and 5.97% | % INa inhibition (peak), single experiments (Table S2) (hNav1.5; cenobamate 40 µM): 36.42% and 24.23% and 44.79% and 44.54% and 38.53% | % INa inhibition (peak), single experiments (Table S2) (hNav1.5; cenobamate 100 µM): 51.80% and 49.36% and 42.07% | % INa inhibition (peak), single experiments (Table S2) (hNav1.5; cenobamate 200 µM): 64.55% and 87.37% and 54.65% and 52.32% and 72.86% | voltage shifts of voltage dependence of activation and steady-state inactivation (hNav1.5; cenobamate 200 µM, both activation and inactivation): > 10 mV | voltage dependence of peak INa inhibition (hNav1.5; cenobamate 200 µM, multiple depolarizing steps): virtually voltage-independent | average inhibition of peak INa (hNav1.5; cenobamate 200 µM, standard protocol, step at -10 mV, initial set, mean (SD), n = 6): 69.53 ± 14.63% | % INa inhibition, single experiments (Table S1) (hNav1.5; cenobamate 200 µM, step at -10 mV): 56.27% and 68.71% and 86.95% and 54.87% and 87.66% and 62.74% | % INa inhibition (peak), single experiments (Table S2) (hNav1.5; cenobamate 1000 µM): 91.76% and 89.36% and 86.34% | IC50 (neuronal Na+ channels): 59 µM | inhibition at 20 µM (hKv11.1 (hERG), IKr; pH 7.4, cenobamate 20 µM, vs. 4.1% in control experiments, read-out: average peak IKr (hERG) inhibition): 5.3 ± 1.8% | inhibition at 200 µM (hKv11.1 (hERG), IKr; read-out: % IKr inhibition, single experiments (Table S7)): 8.01% | inhibition at 200 µM (hKv11.1 (hERG), IKr; read-out: average peak IKr inhibition corrected for control (10.97 − 4.1)): 6.87% | inhibition at 200 µM (hKv11.1 (hERG), IKr; step at -50 mV, read-out: relative peak IKr inhibition, mean): 11 ± 3.11% | IC50 (hKv11.1 (hERG)): > 200 µM | % IKr inhibition, single experiments (Table S7) (hKv11.1 (hERG); cenobamate 200 µM): 14.26% and 12.93% and 7.32% and 12.35% | IC50 (hKv7.1 + minK): > 200 µM | inhibition at 200 µM (hKv7.1 + minK; cenobamate 200 µM, mean (SD), n = 8, not corrected for control rundown 23.66%, read-out: average inhibition of IKs plateau current at +60 mV): 36.7 ± 13% | inhibition at 200 µM (hKv7.1 + minK; cenobamate 200 µM, read-out: estimated net average IKs inhibition (cenobamate 200 µM − control)): 13% | average inhibition of IKs plateau current at +60 mV (hKv7.1 + minK; cenobamate 200 µM, mean (SD), n = 8, not corrected for control rundown 23.66%): 36.68 ± 13.02% | protein binding ([3]; human, ref [5] p.10): 61.0% | average binding to plasma proteins ([3]; study YKP3089C018, ref [5] p. 13): ~ 60% and 60%
